Here are results for one compound from patent US9175003B2, “Substituted azoanthracene derivatives and intermediates for preparation thereof” (TransTech Pharma, LLC, priority 2009, dated 2015).

The target in the assay is human GLP-1 receptor (Homo sapiens (Human), UniProt P43220). The conditions noted are these: read-out: Mean EC50; cAMP, HTRF detection, 30 min at 37° C., HEK-293 cells expressing cloned human GLP-1 receptor.
human GLP-1 receptor, sequence (P43220 24-463): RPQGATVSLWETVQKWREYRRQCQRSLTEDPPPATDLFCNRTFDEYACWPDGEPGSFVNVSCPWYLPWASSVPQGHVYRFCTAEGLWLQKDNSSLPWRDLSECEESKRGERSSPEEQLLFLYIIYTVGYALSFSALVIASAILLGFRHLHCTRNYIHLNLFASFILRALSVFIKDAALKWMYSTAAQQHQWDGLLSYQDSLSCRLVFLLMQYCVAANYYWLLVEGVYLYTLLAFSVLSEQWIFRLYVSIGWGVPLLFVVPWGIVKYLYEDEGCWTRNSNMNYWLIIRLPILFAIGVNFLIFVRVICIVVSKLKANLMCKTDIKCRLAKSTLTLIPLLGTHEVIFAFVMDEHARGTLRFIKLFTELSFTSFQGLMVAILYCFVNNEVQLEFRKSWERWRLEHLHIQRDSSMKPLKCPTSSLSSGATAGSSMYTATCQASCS

Consider `Cc1nccc(-c2ccc(C[C@H](NC(=O)[C@@H]3Cc4cc5c(cc4CN3C(=O)c3ccccc3)O[C@@H](c3ccc(OCC4CCCCC4)cc3)CO5)C(=O)O)cc2)c1C` [Example 442, (S)-2-{[(3S,8S)-7-Benzoyl-3-(4-cyclohexylmethoxy-phenyl)-2,3,6,7,8,9-hexahydro-[1,4]dioxino[2,3-g]isoquinoline-8-carbonyl]-amino}-3-[4-(2,3-dimethyl-pyridin-4-yl)-phenyl]-propionic acid], for which the EC50 came to 208 nM.

A word on the EC50: it is the midpoint of the concentration-response curve.
